Measured values: patent US4908314A (priority 1987, dated 1990)

Key:
[1] = target: protein C activator of the present invention (Agkistrodon contortrix contortrix, UniProt P09872); test: biochemical; format: biochemical
[2] = tested on: protein C activator of the present invention; test: biochemical; format: biochemical, Agkistrodon contortrix contortrix
Protac® = conditions: cited from earlier work
[3] = tested on: protein C activator of Klein et al; conditions: cited from earlier work
[4] = tested on: plasminogen activator inhibitor (PAI); test: Neutralization of plasminogen activator inhibitor activity in vitro; format: biochemical
Factor VIIIa = target: T1, Factor VIIIa (Homo sapiens, UniProt P00451); test: Inactivation of Factor VIIIa in vitro; format: biochemical; conditions: picomolar concentrations
T1 sequence (P00451 20-391 limits assumed): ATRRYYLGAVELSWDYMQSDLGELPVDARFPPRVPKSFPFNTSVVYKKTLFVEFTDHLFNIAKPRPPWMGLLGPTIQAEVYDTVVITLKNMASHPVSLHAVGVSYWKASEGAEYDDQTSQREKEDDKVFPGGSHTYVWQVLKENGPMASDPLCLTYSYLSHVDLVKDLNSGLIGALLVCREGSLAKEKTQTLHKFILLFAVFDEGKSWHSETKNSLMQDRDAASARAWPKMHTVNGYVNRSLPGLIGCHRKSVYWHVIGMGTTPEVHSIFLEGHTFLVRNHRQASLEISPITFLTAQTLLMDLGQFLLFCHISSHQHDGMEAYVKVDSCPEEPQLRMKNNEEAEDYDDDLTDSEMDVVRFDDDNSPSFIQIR
T1 sequence (P00451 392-759 limits assumed): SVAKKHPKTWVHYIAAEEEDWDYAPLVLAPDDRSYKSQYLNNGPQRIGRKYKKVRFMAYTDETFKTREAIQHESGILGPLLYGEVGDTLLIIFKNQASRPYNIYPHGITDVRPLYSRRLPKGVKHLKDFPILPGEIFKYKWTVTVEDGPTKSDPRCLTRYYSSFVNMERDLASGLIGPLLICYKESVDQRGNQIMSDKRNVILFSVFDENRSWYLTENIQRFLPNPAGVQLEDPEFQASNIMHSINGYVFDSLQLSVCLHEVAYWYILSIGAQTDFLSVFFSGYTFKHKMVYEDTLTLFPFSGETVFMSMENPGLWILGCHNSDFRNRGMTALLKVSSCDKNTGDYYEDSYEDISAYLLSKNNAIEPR
T1 sequence (P00451 1709-2351 limits assumed): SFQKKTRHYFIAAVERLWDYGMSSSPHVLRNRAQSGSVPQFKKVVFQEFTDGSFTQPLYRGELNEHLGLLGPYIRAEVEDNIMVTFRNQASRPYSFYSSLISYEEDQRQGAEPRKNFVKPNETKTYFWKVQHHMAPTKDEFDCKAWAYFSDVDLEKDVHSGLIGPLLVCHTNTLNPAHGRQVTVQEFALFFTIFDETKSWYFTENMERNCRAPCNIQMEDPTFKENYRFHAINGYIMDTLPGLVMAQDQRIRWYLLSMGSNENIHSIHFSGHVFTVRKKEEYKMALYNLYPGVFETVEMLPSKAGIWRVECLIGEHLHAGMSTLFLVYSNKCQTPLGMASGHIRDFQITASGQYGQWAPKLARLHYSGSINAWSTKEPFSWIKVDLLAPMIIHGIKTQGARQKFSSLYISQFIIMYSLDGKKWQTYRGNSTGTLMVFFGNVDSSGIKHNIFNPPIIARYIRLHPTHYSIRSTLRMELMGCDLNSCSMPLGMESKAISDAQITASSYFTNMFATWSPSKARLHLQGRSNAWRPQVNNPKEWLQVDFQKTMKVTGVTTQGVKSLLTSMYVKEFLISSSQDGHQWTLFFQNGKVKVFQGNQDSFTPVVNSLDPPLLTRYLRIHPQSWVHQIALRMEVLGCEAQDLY

[5] = Amidolysis of chromogenic substrates; format: biochemical

Chain of protein C activator of the present invention (Agkistrodon contortrix contortrix, UniProt P09872) (P09872 whole entry, looked up): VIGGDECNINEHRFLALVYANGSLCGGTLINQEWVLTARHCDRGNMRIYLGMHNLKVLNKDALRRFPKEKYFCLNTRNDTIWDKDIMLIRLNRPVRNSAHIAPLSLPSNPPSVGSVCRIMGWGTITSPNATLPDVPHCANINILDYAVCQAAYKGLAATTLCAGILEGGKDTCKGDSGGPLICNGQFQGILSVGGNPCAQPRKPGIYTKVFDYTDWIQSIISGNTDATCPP

Which results are given for `NC(N)=NCCC[C@H](NC(=O)[C@@H]1CCCN1C(=O)[C@H](N)Cc1ccccc1)C(=O)CCl` [D-Phe-Pro-Arg-chloromethylketone]?
Inhibition of activity of the activator by serine protease inhibitors [1]: inhibited; Ki [1]: 34 µM; fold higher Ki than the Ki of thrombin inhibition [2]: approximately 500 fold

For `NC(=O)CI` [iodoacetamide], which “Inhibition of activity of Protac” value (Protac®) is on record?
The value was “not inhibited”.

For `N=C(N)Nc1ccc(C(=O)Oc2ccc([N+](=O)[O-])cc2)cc1` [p-nitrophenyl, p-guanidinobenzoate], which “Inhibition of activity of the activator by serine protease inhibitors” value (“Inhibition of activity of the activator” below) [1] is on record?
Its value is “inhibited”.

Which “Inhibition of activity of the activator” value [1] does the source give for `O=S(=O)(F)Cc1ccccc1` [phenylmethylsulphonylfluoride] here?
The value was “inhibited”.

For Antithrombin III, which “Inhibition of activity of the Klein et al activator” value [3] is on record?
The value was “no effect”.

Which “neutralization of PAI activity” value [4] does the source give for activated protein C here?
Its value is “neutralization”.

What about the “inactivation of Factor VIIIa” value (Factor VIIIa) of the same molecule?
The value was “rapid inactivation”.

And the “activity of amidolysis of chromogenic substrates compared with thrombin-activated protein C” value [5]?
Its value is “approximately the same activity”.

B1: soybean trypsin inhibitor: serine protease inhibitor protein (protein, UniProt P01070 25-205, looked up)
Trypsin inhibitor A: DFVLDNEGNPLENGGTYYILSDITAFGGIRAAPTGNERCPLTVVQSRNELDKGIGTIISSPYRIRFIAEGHPLSLKFDSFAVIMLCVGIPTEWSVVEDLPEGPAVKIGENKDAMDGWFRLERVSDDEFNNYKLVFCPQQAEDDKCGDIGISIDHDDGTRRLVVSKNKPLVVQFQKLDKESL
Which “Inhibition of activity of the Klein et al activator” value [3] does the source give for B1 here?
The value was “inhibited”.

And the “Inhibition of activity of the activator” value [1]?
Its value is “inhibited”.
